From patent US9914697B2, “Methods for making polymorphs of bromfenac sodium and bromfenac sodium formulations” (Johnson Matthey Public Limited Company, priority 2009, dated 2018)

What was measured:
Format in all cases: physicochemical
[1] = Stability of Form I polymorph on exposure to water vapour (XRPD and water content analyses); settings: moisturized alongside a dish of water in a bag sealed under nitrogen for 19 h
Protocol: Sodium salt of 2-amino-3-(4-bromobenzoyl)phenylacetic acid, Form I polymorph (0.6 g) was placed in a drying dish alongside a dish containing water (20 g) in a plastic bag. The bag was sealed under nitrogen and the product allowed to moisturize for 19 h.

[2] = Stability of polymorph towards atmospheric moisture (hydration and conversion); settings: must be protected from atmospheric moisture, hydrates to Form I
Excerpt: If so desired, the above-described procedures for producing bromfenac sodium Form I may be adapted and modified so as to provide a product that is a mixture of bromfenac sodium Form I and bromfenac sodium Form II. Bromfenac sodium Form II is a polymorph that is believed to be a monohydrate of bromfenac sodium, i.e., containing one water molecule per molecule of bromfenac sodium, and characterized by a powder x-ray diffraction pattern having main peaks expressed as 2-theta at about 11.3, 14.4, 16.5, 17.3, 18.5, 19.4, 20.7, 21.0, 22.7, 29.0, 31.8, 34.1 and 36.1 degrees. Drying the crystalline product initially obtained in the crystallization process described above under a vacuum results in the removal of some water of hydration from the sesquihydrate and the formation of the Form II polymorph, as evidenced by XRPD. The vacuum drying conditions may be adjusted so as to vary the Form II polymorph content of the product obtained. For example, higher drying temperatures, lower pressures, and increased drying times will generally all increase the amount of bromfenac sodium Form II present. It is believed that such parameters may be selected so as to provide bromfenac sodium Form II in substantially pure form (i.e., substantially free of any bromfenac sodium Form I or any other polymorph). […]

[3] = Water adsorption under wet nitrogen hydration conditions in vacuum oven; settings: 30-35° C. vacuum oven (5 mm Hg), 17 hours
[4] = Rate of dissolution in water; settings: compared with bromfenac sodium Form I or other hydrated forms

Nc1c(CC(=O)[O-])cccc1C(=O)c1ccc(Br)cc1.Nc1c(CC(=O)[O-])cccc1C(=O)c1ccc(Br)cc1.O.O.O.[Na+].[Na+] [Bromfenac sodium Form I, sodium salt of 2-amino-3-(4-bromobenzoyl)phenylacetic acid, sesquihydrate]
change in polymorphic form (XRPD and water content analyses) [1]: no change in polymorphic form

Nc1c(CC(=O)[O-])cccc1C(=O)c1ccc(Br)cc1.[Na+] [Bromfenac sodium Form II, sodium salt of 2-amino-3-(4-bromobenzoyl)phenylacetic acid]
stability of the polymorph [2]: not stable

Nc1c(CC(=O)[O-])cccc1C(=O)c1ccc(Br)cc1.[Na+] [Bromfenac sodium Form III, sodium salt of 2-amino-3-(4-bromobenzoyl)phenylacetic acid]
water content of sample after wet nitrogen hydration conditions [3]: did not change | rate of dissolution in water [4]: significantly lower
